Test results as given in patent US20230056135A1, “MONOMER AND MULTIMERIC ANTI-HBV AGENTS” (priority 2018, published 2023).
Read-outs that look alike come from different tables or passages of the source.

Tests used:
Type in all cases: cell-based
human PBM = assay: Cellular toxicity assay in human PBM cells
Procedure: (§1) The toxicity of the compounds was assessed in Vero, human PBM, CEM (human lymphoblastoid), MT-2, and HepG2 cells, as described previously (see Schinazi R. F., Sommadossi J.-P., Saalmann V., Cannon D. L., Xie M.-Y., Hart G. C., Smith G. A. & Hahn E. F. Antimicrob. Agents Chemother. 1990, 34, 1061-67). Cycloheximide was included as positive cytotoxic control, and untreated cells exposed to solvent were included as negative controls. The cytotoxicity IC50 was obtained from the concentration-response curve using the median effective method described previously (see Chou T.-C. & Talalay P. Adv. Enzyme Regul. 1984, 22, 27-55; Belen'kii M. S. & Schinazi R. F. Antiviral Res. 1994, 25, 1-11).

[1] = system: CEM (human lymphoblastoid); assay: Cellular toxicity assay in CEM cells
Procedure: as §1

Vero = assay: Cellular toxicity assay in Vero cells
Procedure: as §1

HepG2 cells = assay: Cellular toxicity assay in HepG2 cells
Procedure: as §1

wild type HBV = assay: Anti-HBV assay in AD-38 cell line (HBV in culture supernatant); details: AD-38 cell line, Tet (-); for EC50: read-out: Anti-HBV activity EC50; for EC90: read-out: Anti-HBV activity EC90
Procedure: The anti-HBV activity of the compounds was determined by treating the AD-38 cell line carrying wild type HBV under the control of tetracycline (see Ladner S. K., Otto M. J., Barker C. S., Zaifert K., Wang G. H., Guo J. T., Seeger C. & King R. W. Antimicrob. Agents Chemother. 1997, 41, 1715-20). Removal of tetracycline from the medium [Tet (−)] results in the production of HBV. The levels of HBV in the culture supernatant fluids from cells treated with the compounds were compared with that of the untreated controls. Control cultures with tetracycline [Tet (+)] were also maintained to determine the basal levels of HBV expression. 3TC was included as positive control.
The median effective concentrations (EC50) ranges of several of the compounds described herein against HBV are shown in Table 3: […]

[2] = system: HBV replication in HepAD38 cells; assay: Drug-drug combination, inhibition of HBV replication in HepAD38 cells
HBV = assay: Antiviral activity in HepG2-NTCP infectious system; details: Hepatitis B virus, 264 h
Procedure: (§2) Antiviral Activity in HepG2-NTCP Infectious System: HepG2-NTCP (Clone 7) cells were pretreated with antivirals for 30 min prior infection for 24 h with stock concentrated virus produced from HepAD38 at a dose of ˜300 virus genome equivalent (VGE) per cell in the presence of media containing 4% polyethylene glycol 8000 (PEG) and 2% DMSO. After 24 h, virus inoculum with or without antiviral agents were washed out from cells and media in the presence of 4% PEG and 2% DMSO, with or without antiviral agents were replenished every two days until day 11. Cells and supernatants were harvested and tested for intracellular HBV DNA, pregenomic (pg) RNA, surface RNA, and secreted HBeAg (ELISA).

[3] = Cytotoxicity (rDNA) in HepG2-NTCP infectious system; details: human, HepG2-NTCP (Clone 7) cells infected with HBV, day 11, read-out: HBV DNA/rDNA CC50
Procedure: as §2

[4] = Cellular toxicity assay in human PBM cells; details: human, human PBM cells; read-out: Cytotoxicity; CC50 (μM) PBM
Procedure: as §1

[5] = Cellular toxicity assay in HepG2 cells; details: human, HepG2 cells; read-out: Cytotoxicity; CC50 (μM) HepG2
Procedure: as §1

Glutathione levels (GSH) = assay: Glutathione levels in Huh7 cells (GSH-Glo Glutathione Assay)
Procedure: Glutathione levels (GSH) were measured in Huh7 cells after 22 h treatment with 10 μM CAMs (GSH-Glo™ Glutathione Assay—Promega). Treatment of Huh7 with 10 μM positive control, L-buthionine-sulfoximine, reduced cellular GSH levels by 58% (data not shown); Samples were tested in triplicates.

[6] = read-out: HBV DNA/rDNA EC50 (nM)
[7] = read-out: HBV RNA EC50, nM pgRNA
[8] = read-out: HBV RNA EC50, nM sRNA
[9] = human PBM cells, read-out: Cytotoxicity, CC50 (μM) PBM
[10] = CEM cells, read-out: Cytotoxicity, CC50 (μM) CEM
[11] = Vero cells, read-out: Cytotoxicity, CC50 (μM) VERO
[12] = HepG2 cells, read-out: Cytotoxicity, CC50 (μM) HepG2

| Structure (SMILES) | CC50 (human PBM) [µM] | CC50 [1] [µM] | CC50 (Vero) [µM] | CC50 (HepG2 cells) [µM] | EC50 (wild type HBV) [nM] | EC90 (wild type HBV) [nM] | EC50 (HBV; [6]) [nM] | EC50 (HBV; [7]) [nM] | EC50 (HBV; [8]) [nM] | EC50 (HBV; read-out: HBeAg EC50, nM) [nM] | CC50 at 11 days [3] [nM] | CC50 (human PBM; [9]) [µM] | CC50 [1, 10] [µM] | CC50 (Vero; [11]) [µM] | CC50 (HepG2 cells; [12]) [µM] | also measured |
| --- | --- | --- | --- | --- | --- | --- | --- | --- | --- | --- | --- | --- | --- | --- | --- | --- |
| O=C(NC(Br)=C(C(=O)N1CCCCC1)c1ccccc1OCCCCCCCCCCCCOc1ccccc1C(C(=O)N1CCCCC1)=C(Br)NC(=O)c1ccc([N+](=O)[O-])cc1)c1ccc([N+](=O)[O-])cc1 [Compound 28] | > 100 | > 100 | > 100 | > 100 | 1000 to 10000 |  |  |  |  |  |  |  |  |  |  |  |
| CCOC(=O)C1=C(CNCc2cn(CCCCCCCCn3cc(CNC(=O)C(=O)c4c(C)c(C(=O)Nc5ccc(F)c(F)c5)n(C)c4C)nn3)nn2)NC(c2nccs2)=NC1c1ccc(F)cc1Br (stereo not drawn) [Compound 20, Ethyl 4-(2-bromo-4-fluorophenyl)-6-((((1-(8-(4-((2-(5-((3,4-difluorophenyl)-carbamoyl)-1,2,4-trimethyl-1H-pyrrol-3-yl)-2-oxoacelamido)methyl)-1H-1,2,3-triazol-1-yl)octyl)-1H-1,2,3-triazol-4-yl)methyl)amino)methyl)-2-(thiazol-2-yl)-1,4-dihydropyrimidine-5-carboxylate] | 33 | > 100 | > 100 | > 100 | 10 to 100 | 1000 to 10000 |  |  |  |  |  |  |  |  |  |  |
| C=C1[C@H](CO)[C@@H](O)C[C@@H]1n1cnc2c(=O)[nH]c(N)nc21 [ETV, Entecavir, reference compound] |  |  |  |  |  |  | < 1 | > 1000 | > 1000 | > 1000 | > 1000 |  |  |  |  | EC50 ([2]; Hepatitis B virus, HePAD38): 0.04 nM; EC90 ([2]; Hepatitis B virus, HePAD38): 12.9 nM |
| C#CCNC(=O)C(=O)c1c(C)c(C(=O)Nc2ccc(F)c(F)c2)n(CC#C)c1C [Compound 114, N-(3,4-Difluorophenyl)-3,5-dimethyl-4-(2-oxo-2-(prop-2-yn-1-ylamino)acetyl)-1-(prop-2-yn-1-yl)-1H-pyrrole-2-carboxamide] |  |  |  |  |  |  | 0.6 | 79.6 | 67.8 | 488 | > 1000 |  |  |  |  | CC50 [4]: > 100 µM; CC50 [5]: > 100 µM; EC50 (wild type HBV; Hepatitis B virus): 0.1 to 1 nM; GSH levels relative to untreated control (Glutathione levels (GSH); 22 h treatment): > 10 µM; inhibition at 10 µM (Glutathione levels (GSH); Homo sapiens, Huh-7, read-out: GSH levels relative to untreated control (% inhibition at 10 μM), 22 h, 10 μM): 27% |
| Cc1c(C(=O)C(=O)NCc2cn(CCCCCCCCn3cc(CNC(=O)C(=O)c4c(C)c(C(=O)Nc5ccc(F)c(F)c5)n(C)c4C)nn3)nn2)c(C)n(C)c1C(=O)Nc1ccc(F)c(F)c1 [Compound 9, 4,4′-(2,2′-(((Octane-1,8-diylbis(1H-1,2,3-triazole-1,4-diyl))bis(methylene))bis(azanediyl))bis(2-oxoacetyl))bis(N-(3,4-difluorophenyl)-1,3,5-trimethyl-1H-pyrrole-2-carboxamide)] |  |  |  |  | 100 to 1000 | 1000 to 10000 |  |  |  |  |  | 26.4 | > 100 | > 100 | > 100 |  |
| Cc1c(C(=O)C(=O)NCc2cn(CCCCCCCCCCCCn3cc(CNC(=O)C(=O)c4c(C)c(C(=O)Nc5ccc(F)c(F)c5)n(C)c4C)nn3)nn2)c(C)n(C)c1C(=O)Nc1ccc(F)c(F)c1 [Compound 53, 4,4′-(2,2′-(((Dodecane-1,12-diylbis(1H-1,2,3-triazole-1,4-diyl))bis(methylene))bis(azanediyl))bis(2-oxoacetyl))bis(N-(3,4-difluorophenyl)-1,3,5-trimethyl-1H-pyrrole-2-carboxamide)] |  |  |  |  | 0.1 to 1 | 10 to 100 |  |  |  |  |  | 35 | 45 | > 100 | > 100 | EC50 ([2]; HepAD38 cells, combinations at ratio 1:1, read-out: EC50): 0.02 nM; EC90 ([2]; HepAD38 cells, combinations at ratio 1:1, read-out: EC90): 5.29 nM |
